The results in this text go back to US20230085307A1, “PYRIDAZINONE COMPOUND AND HERBICIDE” (NISSAN CHEMICAL CORPORATION, priority 2019, published 2023).

Molecules are shown by their SMILES.

The subject of one assay is southern crabgrass. The assay is described as follows: Test Example 5: herbicidal effect by foliage application, plastic box (Table 20, symbol F). The assay is classed as in vivo, southern crabgrass (Digitaria ciliaris). As to conditions: foliage application, 320 g/ha, three weeks after application. In short, it runs like this: (§1)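 Foliar spray test: emulsion formulation diluted in water to a set application rate, sprayed onto 14-day-old plants raised in diluvial soil at 25° C to 30° C under glass. Both herbicidal effect and crop effect rated visually three weeks later.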

In a further assay the test system is green foxtail. Put plainly: Test Example 5: herbicidal effect by foliage application, plastic box (Table 20, symbol G). The assay is classed as in vivo, green foxtail (Setaria viridis). The settings on record: foliage application, 320 g/ha, three weeks after application. An outline of the steps:
as §1

In assay [1] the test system is barnyard grass. Put plainly: Test Example 5: herbicidal effect by foliage application, plastic box (Table 20, symbol H). The assay is classed as in vivo, barnyard grass (Echinochloa crus-galli). The settings on record: foliage application, 320 g/ha, three weeks after application. An outline of the steps:
as §1

The next assay has as its system wild oat. The assay is described as follows: Test Example 5: herbicidal effect by foliage application, plastic box (Table 20, symbol I). The assay is classed as in vivo, wild oat (Avena fatua). The settings on record: foliage application, 320 g/ha, three weeks after application. An outline of the steps: as §1
Another assay has as its system blackgrass. Put plainly: Test Example 5: herbicidal effect by foliage application, plastic box (Table 20, symbol J). The assay is classed as in vivo, blackgrass (Alopecurus myosuroides). The settings on record: foliage application, 320 g/ha, three weeks after application. In short, it runs like this: as §1
A further assay has as its system Italian ryegrass. The assay is described as follows: Test Example 5: herbicidal effect by foliage application, plastic box (Table 20, symbol K). The settings on record: foliage application, 320 g/ha, three weeks after application. The assay is classed as in vivo, Italian ryegrass (Lolium multiflorum). In short, it runs like this: as §1
Another assay relates to windgrass. The assay is described as follows: Test Example 5: herbicidal effect by foliage application, plastic box (Table 20, symbol L). The settings on record: foliage application, 320 g/ha, three weeks after application. The assay is classed as in vivo, windgrass (Apera spica-venti). In short, it runs like this:
as §1

A further assay relates to velvetleaf. Put plainly: Test Example 5: herbicidal effect by foliage application, plastic box (Table 20, symbol M). The assay is classed as in vivo, velvetleaf (Abutilon theophrasti). The settings on record: foliage application, 320 g/ha, three weeks after application. An outline of the steps: as §1
The subject of the next assay is lambsquarters. The assay is described as follows: Test Example 5: herbicidal effect by foliage application, plastic box (Table 20, symbol O). The assay is classed as in vivo, lambsquarters (Chenopodium album). As to conditions: foliage application, 320 g/ha, three weeks after application. An outline of the steps:
as §1

For another assay, the system named is false cleavers. Put plainly: Test Example 5: herbicidal effect by foliage application, plastic box (Table 20, symbol Q). The assay is classed as in vivo, false cleavers (Galium spurium). The settings on record: foliage application, 320 g/ha, three weeks after application. From the text:
[Test Example 5] Herbicidal Effect Test by Foliage Application
Sterilized diluvial soil was placed in a plastic box having a length of 21 cm, a width of 13 cm, and a depth of 7 cm. The seeds of each of southern crabgrass, green foxtail, barnyard grass, wild oat, blackgrass, Italian ryegrass, windgrass, velvetleaf, redroot pigweed, lambsquarters, chickweed, false cleavers, persian speedwell, corn, soybean, rice, wheat, beet, and rapeseed were sowed in a spot-like manner and covered with the soil having a thickness of about 1.5 cm. Thereafter, the plants were grown in a greenhouse at 25° C. to 30° C. After 14-day growth of the plants, the emulsion agent of the compound of the present invention prepared according to Formulation Example 2 was diluted with water so as to achieve a predetermined herbicide amount, and the diluted emulsion agent was uniformly applied to a foliage part with a small-sized spray. Three weeks after the herbicide application, the effect of the herbicide on each plant was evaluated according to the criteria of Test Example 1.

Another assay concerns persian speedwell. Put plainly: Test Example 5: herbicidal effect by foliage application, plastic box (Table 20, symbol R). The assay is classed as in vivo, Persian speedwell (Veronica persica). The settings on record: foliage application, 320 g/ha, three weeks after application. An outline of the steps:
as §1

For assay [2], the system named is barnyard grass. Put plainly: Test Example 3: herbicidal effect by foliage application, Wagner pot (Table 18, symbol H). The assay is classed as in vivo, barnyard grass (Echinochloa crus-galli). The settings on record: 320 g/ha. An outline of the steps:
(§2)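 Plants were sown in alluvial soil held under 0.1–0.5 cm standing water and grown 14 days in a greenhouse at 25–30 °C. An emulsifiable formulation, water-diluted to the set dose, was then sprayed onto the foliage, and effects were scored three weeks later using previously defined criteria.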

In the next assay the test system is Chinese sprangletop. Put plainly: Test Example 3: herbicidal effect by foliage application, Wagner pot (Table 18, symbol D). The settings on record: 320 g/ha. The assay is classed as in vivo, chinese sprangletop (Leptochloa chinensis). An outline of the steps:
as §2

The subject of another assay is rice flat sedge. Put plainly: Test Example 3: herbicidal effect by foliage application, Wagner pot (Table 18, symbol E). The assay is classed as in vivo, rice flat sedge (Cyperus iria). As to conditions: 320 g/ha. In short, it runs like this:
as §2

With `COc1cc2sc(-c3ccc(F)cc3)c(-c3c(O)c(C)nn(C)c3=O)c2cc1OC` [5-057], the “herbicidal effect on southern crabgrass (F)” value with southern crabgrass is on record as 0 (Herbicidal rate of 5% or less (almost no effect)). In the assay with green foxtail, the “herbicidal effect on green foxtail (G)” value was 0 (Herbicidal rate of 5% or less (almost no effect)). The “herbicidal effect on barnyard grass (H)” value in the assay with barnyard grass [1] is reported as 0 (Herbicidal rate of 5% or less (almost no effect)). In the assay on wild oat, the “herbicidal effect on wild oat (I)” value is 0 (Herbicidal rate of 5% or less (almost no effect)). Moreover, the “herbicidal effect on blackgrass (J)” value in the assay with blackgrass is on record as 0 (Herbicidal rate of 5% or less (almost no effect)). The “herbicidal effect on Italian ryegrass (K)” value in the assay on Italian ryegrass is listed as 0 (Herbicidal rate of 5% or less (almost no effect)). Besides, the “herbicidal effect on windgrass (L)” value in the assay on windgrass was 0 (Herbicidal rate of 5% or less (almost no effect)). Also, the “herbicidal effect on velvetleaf (M)” value in the assay on velvetleaf is reported as 0 (Herbicidal rate of 5% or less (almost no effect)). In the assay with lambsquarters, the “herbicidal effect on lambsquarters (O)” value is given as 0 (Herbicidal rate of 5% or less (almost no effect)). Besides, the “herbicidal effect on false cleavers (Q)” value in the assay with false cleavers is recorded as 0 (Herbicidal rate of 5% or less (almost no effect)). Besides, the “herbicidal effect on persian speedwell (R)” value in the assay on persian speedwell was 4 (Herbicidal rate of 70% or more and less than 90%).

In the case of `CCOc1ccccc1-c1cc2c(-c3c(O)c(C)nn(C)c3=O)c(-c3ccccc3OCC)sc2cc1OC` [5-079], the “herbicidal effect on barnyard grass (H)” value in the assay with barnyard grass [2] was 3 (Herbicidal rate of 40% or more and less than 70%); in the assay with barnyard grass [1], 0 (Herbicidal rate of 5% or less (almost no effect)). Further, the “herbicidal effect on Chinese sprangletop (D)” value with Chinese sprangletop was 0 (Herbicidal rate of 5% or less (almost no effect)). The “herbicidal effect on rice flat sedge (E)” value in the assay on rice flat sedge is on record as 0 (Herbicidal rate of 5% or less (almost no effect)). The “herbicidal effect on southern crabgrass (F)” value in the assay with southern crabgrass is listed as 0 (Herbicidal rate of 5% or less (almost no effect)). The “herbicidal effect on green foxtail (G)” value in the assay with green foxtail was 0 (Herbicidal rate of 5% or less (almost no effect)). For the same compound, the “herbicidal effect on wild oat (I)” value in the assay on wild oat is recorded as 0 (Herbicidal rate of 5% or less (almost no effect)). Further, in the assay with blackgrass, the “herbicidal effect on blackgrass (J)” value was 0 (Herbicidal rate of 5% or less (almost no effect)). Moreover, the “herbicidal effect on Italian ryegrass (K)” value with Italian ryegrass is listed as 0 (Herbicidal rate of 5% or less (almost no effect)). Moreover, the “herbicidal effect on windgrass (L)” value in the assay with windgrass is 0 (Herbicidal rate of 5% or less (almost no effect)). The “herbicidal effect on velvetleaf (M)” value in the assay with velvetleaf is given as 0 (Herbicidal rate of 5% or less (almost no effect)). Further, in the assay on lambsquarters, the “herbicidal effect on lambsquarters (O)” value was 0 (Herbicidal rate of 5% or less (almost no effect)). The “herbicidal effect on false cleavers (Q)” value in the assay on false cleavers is 5 (Herbicidal rate of 90% or more (almost completely withered)). Also, the “herbicidal effect on persian speedwell (R)” value in the assay on persian speedwell is 0 (Herbicidal rate of 5% or less (almost no effect)).
